In patent US10670605B2, “Cysteine reactive probes and uses thereof” (The Scripps Research Institute, priority 2015, dated 2020):

How the values were obtained:
[1] = system: primary human T cells; assay: T cell activation markers CD25 and CD69 (flow cytometry); format: cell-based; conditions: 2.5 mM, 8 h
Description: 96-well plates were coated with anti-CD3 (1:200; BioXcell) and anti-CD28 (1:500; 302933; BioLegend) in PBS (100 μL/well) overnight at 4° C. The plates were then washed twice with PBS and to each well was added 500,000 primary T cells in 100 μL of RPMI supplemented with 10% FBS, glutamine, and Pen-Strep. Cells were then treated with 100 μL of media containing compound at the indicated concentrations (final well volume of 200 μL). Cells were left at 37° C. in a 5% CO2 incubator for the indicated periods of time and harvested by centrifugation (500 g, 8 min, 4° C.), followed by washing with PBS.
Flow cytometry analysis of cell surface antigens was performed with the following antibodies: Pacific Blue-conjugated anti-CD8 (1:25 dilution; clone RPA-T8; BD Biosciences), APC-conjugated anti-CD4 (1:25 dilution; clone RPA-T4; eBioscience), phycoerythrin-conjugated anti-CD25 (1:25 dilution; clone BC96; eBioscience or PC61; BioLegend (PKCθ studies)), FITC-conjugated anti-CD69 (1:25 dilution; clone FN50; eBioscience). All antibodies were diluted in 1% FBS in PBS, and 50 μL of the stain solution was added to each well. […] Flow cytometry acquisition was performed with BD FACSDivam-driven BD™ LSR II flow cytometer (Becton, Dickinson and Company). Data was then analyzed with FlowJo software (Treestar Inc.). Data represent mean±SE for four-five experiments per group.

[2] = system: intracellular GSH in primary human T cells; assay: Quantification of cellular glutathione (GSH) levels; format: cell-based; conditions: DMF 50 μM 2 h; BSO 2.5 mM 4 h
Description: Primary human T cells (2.5 million cells/mL, 20 mL per condition) were treated as indicated, harvested by centrifugation (500 g, 8 min, 4° C.), and washed twice with PBS. To the cell pellet was added 75 μL of lysis buffer. […] Protein concentrations were adjusted to at least 5 mg/mL and the assay performed according to manufacturer's instructions (Sigma-Aldrich, CS 1020). Data represent mean±SE for two biological replicates.

[3] = system: Cys residues in primary human T cells; assay: isoTOP-ABPP of compound-treated primary human T cells; format: cell-based; conditions: MMF 50 μM 4 h; BSO 2.5 mM 4 h
[4] = system: IMPDH2 (C140); assay: Click probe 18 labeling of recombinant IMPDH2 and its competition; format: binding, human; conditions: probe 25 μM
[5] = system: protein targets in MDA-MB-231 cells; assay: Whole protein capture with click probes (SILAC proteomics), native vs heat denatured; format: binding, human; conditions: proteins liganded by parent fragment (3 / 14) and enriched by click probe (19 / 18)
Description: Protein enrichment by 18 and 19 was measured by whole protein capture of isotopically-SILAC labeled MDA-MB-231 cells using quantitative (SILAC) proteomics.

Row | SMILES | T cell activation (CD25) [1] | cellular GSH content [2] | alteration of the ~40 DMF-sensitive Cys residues [3] | direct labeling of IMPDH2 WT and mutants by click probe [4] | percentage of quantified protein targets sensitive to heat denaturation [5]
1 | CCCCS(=N)(=O)CCC(N)C(=O)O (centres unmarked) [BSO, buthionine sulfoximine] | no effect | Significant reductions | none | – | –
2 | C#CCCCCNC(=O)c1cc(NC(=O)C=C)cc(C(F)(F)F)c1 [compound 18] | – | – | – | labeled WT-IMPDH2 and a C331S-IMPDH2 mutant, but not the C140S or C140S/C331S mutants | 73%
